Assay results: PubChem BioAssay AID624092 (The Scripps Research Institute Molecular Screening Center, 2012)
The source made the active and inactive calls.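 How the source made its calls: active means compounds blocking the TEM-1 enzyme with a half-maximal inhibitory concentration of 10 micromolar or lower; inactive means the rest.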

Molecular target: Beta-lactamase TEM (Escherichia coli) (UniProt P62593)
Test: TEM-1 beta-lactamase inhibitor potency, late-stage follow-up, selectivity assay, biochemical, absorbance, probe candidates and analogs (AID 624092)
Details: purified TEM-1, nitrocefin hydrolysis, epi-absorbance

Sequence of Beta-lactamase TEM (Escherichia coli) (P62593 whole entry, looked up): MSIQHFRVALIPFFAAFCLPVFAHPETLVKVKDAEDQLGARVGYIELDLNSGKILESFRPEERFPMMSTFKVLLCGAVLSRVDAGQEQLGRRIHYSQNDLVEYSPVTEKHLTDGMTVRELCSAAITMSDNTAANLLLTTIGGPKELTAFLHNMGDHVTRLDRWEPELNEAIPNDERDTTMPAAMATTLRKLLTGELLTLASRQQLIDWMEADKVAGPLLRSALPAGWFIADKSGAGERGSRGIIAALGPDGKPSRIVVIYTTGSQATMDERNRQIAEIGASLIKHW

Row | SMILES | IC50
1 | CN1CCN(NC(=O)CN2C(=O)/C(=C/c3c(Cl)cccc3Cl)SC2=S)CC1 | > 60 µM (inactive)
2 | CN1CCN(NC(=O)CN2C(=O)/C(=C/c3c(Cl)ccc(Cl)c3Cl)SC2=S)CC1 | > 60 µM (inactive)
